Tests used:
Type in all cases: in vivo
Plutella xylostella = assay: Insecticidal test on Plutella xylostella (cabbage leaf soaking); conditions: 144 h, 500 ppm solution, cabbage leaves soaked, 3rd-instar larvae, 6 days after, 25° C.
Experimental: Test Example 2: Insecticidal Test on Plutella xylostella
(§1) 10% emulsifiable concentrates (or 10% wettable powders) of compounds of the present invention were diluted with water containing a spreader to obtain 500 ppm solutions. Leaves of cabbage were soaked in the solutions for about 10 seconds. After the soaking, the leaves were dried in air and placed in dishes. In each dish, five 3rd-instar larvae of Plutella xylostella were released, and the dishes were covered with lids and placed in an incubator at 25° C. 6 days after, dead insects in the dishes were counted, and the mortality was calculated by using the same equation as in Test Example 1. The test was carried out in duplicate.

Spodoptera litura = assay: Insecticidal test on Spodoptera litura (cabbage leaf soaking); conditions: 144 h, 500 ppm solution, cabbage leaves soaked, 3rd-instar larvae, 6 days after, 25° C.
Experimental: Test Example 3: Insecticidal Test on Spodoptera litura
as §1, with “Spodoptera litura” for “Plutella xylostella”

Myzus persicae = assay: Insecticidal test on Myzus persicae (spray); conditions: 144 h, 500 ppm solution sprayed (2.5 mg/cm^2), apterous adults on cabbage leaves, 6 days after, 25° C.
Experimental: Test Example 5: Insecticidal Test on Myzus persicae
Wet absorbent cotton was laid on glass dishes having an inner diameter of 3 cm, and covered with leaves of cabbage cut into circles having a diameter of 3 cm, and 4 apterous adults of Myzus persicae were released. After a day, 10% emulsifiable concentrates (or 10% wettable powders) of compounds of the present invention were diluted with water containing a spreader to obtain 500 ppm solutions. The solutions were sprayed from a rotary spray tower (2.5 mg/cm^2), and the dishes were covered with lids and placed in an incubator at 25° C. 6 days after, dead insects were counted, and the mortality was calculated by using the same equation as in Test Example 1. The test was carried out in duplicate.

Nilaparvata lugens [1] = assay: Systemic insecticidal test on Nilaparvata lugens (root dipping); conditions: 20 ppm solution, rice seedling roots dipped 7 days, 3rd-instar larvae, 6 days after the release
Experimental: Test Example 7: Systemic Insecticidal Test on Nilaparvata lugens
10% emulsifiable concentrates of compounds of the present invention were diluted with tap water to obtain 20 ppm solutions, and root of rice plug seedlings (at the 2-leaf stage) were dipped in the solutions. 7 days after, the rice seedlings were picked and put in test tubes, and in each tube, five 3rd-instar larvae of Nilaparvata luqens were released, and the tubes were capped with sponge and placed in an incubator at 25° C. 6 days after the release of the insects, dead insects were counted, the and the mortality was calculated by using the same equation as in Test Example 1. The test was carried out in duplicate.

Rhipicephalus sanguineus = assay: Test on the effect on Rhipicephalus sanguineus (thin film contact); conditions: 96 h, application dose 10 μg/cm^2, protonymphs, 4 days after the release, 25° C.
Experimental: Test Example 10: Test on the Effect on Rhipicephalus sanguineus
(§2) 3.5 mg of compounds of the present invention were diluted with 3.5 ml of acetone to obtain 1,000 ppm solutions. 350 μl of the solutions were applied to the bottoms and the side walls of glass containers with an inner wall surface area of 35 cm^2, and acetone was volatilized to prepare thin films of the compounds on the inner walls of the glass containers. Since the inner wall surface area of each glass container was 35 cm^2, the application dose was 10 μg/cm^2.
(§3) To each glass container, five protonymphs (male and female) of Rhipicephalus sanguineus were released, and the containers were covered with lids and placed in an incubator at 25° C. 4 days after the release of the ticks, dead ticks were counted, and the mortality was calculated by using the same equation as in Test Example 1.

Ctenocephalides felis = assay: Test on the effect on Ctenocephalides felis (thin film contact); conditions: 96 h, application dose 10 μg/cm^2, adults, 4 days after the release, 25° C.
Experimental: Test Example 11: Test on the Effect on Ctenocephalides felis
as §2
as §3, with “adults” for “protonymphs”, “Ctenocephalides felis” for “Rhipicephalus sanguineus”, “fleas,” for “ticks,”, “fleas” for “ticks”

Reticulitermes speratus = assay: Insecticidal test on Reticulitermes speratus (treated river sand); conditions: 240 h, 0.5 ml of 100 ppm solution on 10 g river sand, adults, 10 days after, 25° C.
Experimental: Test Example 15: Insecticidal Test on Reticulitermes speratus
10% emulsifiable concentrates of the compounds of the present invention were prepared. The emulsifiable concentrates were diluted with water to prepare 100 ppm solutions. 0.5 ml of the solutions were dropped on 10 g of river sand and mixed. In dishes having an inner diameter of 4 cm, 1% agar (2 cm square) was laid, and the treated river sand and a filter paper piece as bait were placed. Adults of Reticulitermes speratus were released in the dishes, and the dishes were placed in an incubator at 25° C. 10 days after, dead insects in the dishes were counted, and the mortality was calculated by using the same equation as in Test Example 1. The test was carried out in duplicate.

Culex pipiens molestus = assay: Insecticidal test on Culex pipiens molestus (larvae in well plate); conditions: 24 h
Experimental: Test Example 16: Insecticidal Test on Culex pipiens molestus
2 mg of compounds of the present invention were dissolved in 0.2 ml of dimethyl sulfoxide to prepare 1% (w/v) dimethyl sulfoxide solutions. The solutions were diluted with distilled water by a factor of 100 to prepare 100 ppm solutions. To 1.9 ml plastic plates (Cellstar 24 well plate, manufactured by Greiner Bio-One International GmbH) as test plates, 0.7 ml of water containing 10 to 30 larvae of Culex pipiens molestus one day after hatching, and 0.2 ml of an aqueous suspension of aquarium fish food (TetraMin manufactured by Spectrum Brands Japan) as bait, were dropped. 0.1 ml of the 100 ppm solutions were dropped, and the plates were placed in an incubator at 25° C. 1 day after, dead larvae were counted, and the mortality was calculated by using the same equation as in Test Example 1. The test was carried out in duplicate.

Aedes albopictus = assay: Insecticidal test on Aedes albopictus (larvae in well plate); conditions: final concentration 10 ppm, larvae one day after hatching, 3 days after, 25° C.
Experimental: Test Example 17: Insecticidal Test on Aedes albopictus
2 mg of compounds of the present invention were dissolved in 0.2 ml of dimethyl sulfoxide to prepare 1% (w/v) dimethyl sulfoxide solutions. 0.01 ml of the solutions were mixed with 0.99 ml of pure water to prepare 0.01% (w/v) solutions. To 0.3 ml plastic plates (Cellstar 96 well culture plates, manufactured by Greiner Bio-One International GmbH) as test plates, 0.09 ml of distilled water containing 30 larvae of Aedes albopictus one day after hatching was dropped, and 0.01 ml of the 0.01% (w/v) solutions were dropped so that the final concentration would be 10 ppm. The plates were covered with lids and placed in an incubator at 25° C. 3 days after, dead larvae were counted, and the mortality was calculated by using the same equation as in Test Example 1.

[2] = tested on: Frankliniella occidentalis; assay: Insecticidal activity on Frankliniella occidentalis (spray on kidney bean leaves); conditions: 48 h, 500 ppm solution sprayed (2.5 mg/cm^2), larvae on kidney bean leaves, 2 days after
Experimental: Test Example 4: Insecticidal Activity on Frankliniella occidentalis
In styrol cups having an inner diameter of 7 cm, wet filter paper was laid, kidney bean leaves cut into a 3 cm square were laid on the paper, and each leaf was inoculated with 20 larvae of Frankliniella occidentalis. 10% emulsifiable concentrates (or 10% wettable powders) of compounds of the present invention were diluted with water containing a spreader to obtain 500 ppm solutions. 2.5 ml of the solutions were sprayed from a rotary spray tower into the styrol cups (2.5 mg/cm^2). 2 days after, dead insects were counted, and the insect damage degree on kidney bean leaves was examined. The mortality was calculated by using the same equation as in Test Example 1. The insect damage degree was evaluated from the proportion of the area with insect damage on the leaves, as follows. 1: 0 to 20% insect damage, 2: 20 to 50% insect damage, 3: 50 to 70% insect damage, and 4: 70% or higher insect damage. The test was carried out in duplicate.

Nilaparvata lugens [3] = assay: Insecticidal test on Nilaparvata lugens (rice sheath soaking); conditions: 144 h, 500 ppm solution, rice sheaths soaked, 3rd-instar larvae, 6 days after, 25° C.
Experimental: Test Example 1: Insecticidal Test on Nilaparvata lugens
10% emulsifiable concentrates (or 10% wettable powders) of compounds of the present invention were diluted with water containing a spreader to obtain 500 ppm solutions. Rice sheaths were soaked in the solutions for about 10 seconds. After the soaking, the rice sheaths were dried in air and put in test tubes. In each tube, five 3rd-instar larvae of Nilaparvata luqgens were released, and the tubes were capped with sponge and placed in an incubator at 25° C. 6 days after, dead insects in the test tubes were counted, and the mortality was calculated in accordance with the following equation. The test was carried out in duplicate. Mortality (%)=(the number of dead insects/the number of released insects)×100)

| SMILES | mortality at 500 ppm (Plutella xylostella) [%] | mortality at 500 ppm (Spodoptera litura) [%] | mortality at 500 ppm (Myzus persicae) [%] | mortality at 20 ppm (Nilaparvata lugens [1]) [%] | mortality at 10 µg/cm2 (Rhipicephalus sanguineus) [%] | mortality at 10 µg/cm2 (Ctenocephalides felis) [%] | mortality at 100 ppm (Reticulitermes speratus) [%] | mortality at 100 ppm (Culex pipiens molestus) [%] | mortality at 10 ppm (Aedes albopictus) [%] | mortality at 500 ppm [2] [%] | mortality at 500 ppm (Nilaparvata lugens [3]) [%] |
| --- | --- | --- | --- | --- | --- | --- | --- | --- | --- | --- | --- |
| CCS(=O)(=O)c1c(-c2nc3cc(C(F)(F)F)cnc3n2C)nn2cc(Cl)ccc12 [1-1-001a, 2-[6-chloro-3-(ethylsulfonyl)pyrazolo[1,5-a]pyridin-2-yl]-3-methyl-6-(trifluoromethyl)-3H-imidazo[4,5-b]pyridine] | ≥ 90 | ≥ 90 | ≥ 90 | ≥ 90 | ≥ 50 | ≥ 50 | ≥ 70 | 100 | ≥ 70 | – | – |
| CCS(=O)(=O)c1c(-c2nc3cc(C(F)(F)F)cnc3n2C)nn2cc(-n3ccc(C(F)(F)F)n3)ccc12 [1-1-003a, 2-[3-(ethylsulfonyl)-6-(3-(trifluoromethyl)-1H-pyrazol-1-yl)pyrazolo[1,5-a]pyridin-2-yl]-3-methyl-6-(trifluoromethyl)-3H-imidazo[4,5-b]pyridine] | ≥ 90 | ≥ 90 | – | – | – | ≥ 50 | – | – | ≥ 70 | – | – |
| CCS(=O)(=O)c1c(-c2cn3cnc(C(F)(F)C(F)(F)F)cc3n2)nn2ccc(C(F)(F)F)cc12 [1-3-001a, 2-[3-(ethylsulfonyl)-5-(trifluoromethyl)pyrazolo[1,5-a]pyridin-2-yl]-7-(perfluoroethyl)imidazo[1,2-c]pyrimidine] | ≥ 90 | ≥ 90 | – | – | ≥ 50 | ≥ 50 | – | – | ≥ 70 | ≥ 50 | – |
| CCS(=O)(=O)c1c(-c2cn3nc(C(F)(F)C(F)(F)F)sc3n2)nn2ccc(C(F)(F)F)cc12 [1-5-001a, 6-[3-(ethylsulfonyl)-5-(trifluoromethyl)pyrazolo[1,5-a]pyridin-2-yl]-2-(perfluoroethyl)imidazo[2,1-b][1,3,4]thiadiazole] | ≥ 90 | ≥ 90 | – | – | ≥ 50 | ≥ 50 | – | – | ≥ 70 | – | – |
| CCS(=O)(=O)c1c2ccc(C(F)(F)F)cc2nn1-c1nc2cc(C(F)(F)F)cnc2n1C [1-10-001a, 2-[3-(ethylsulfonyl)-6-(trifluoromethyl)-2H-indazol-2-yl]-3-methyl-6-(trifluoromethyl)-3H-imidazo[4,5-b]pyridine] | ≥ 90 | ≥ 90 | ≥ 90 | ≥ 90 | – | ≥ 50 | ≥ 70 | – | – | – | ≥ 90 |

— patent US10640518B2, “Condensed heterocyclic compounds and pesticides” (Nissan Chemical Corporation, priority 2016, dated 2020)
